Measurements from ChEMBL document CHEMBL1140731 (J Med Chem, 2008).
In brackets after ≈: the same amount, converted by molar mass. Activity calls are given as the source filed them. The calls are words filed in the database; no cut-off is given here.

What was measured:
[1] = target: Transient receptor potential cation channel subfamily V member 1 (Homo sapiens, UniProt Q8NER1); test: Blockade of human TRPV1 receptor assessed as inhibition of capsaicin-induced calcium flux
[2] = Aqueous solubility at pH 1; type: physicochemical; conditions: buffer
[3] = Aqueous solubility at pH 6.8; type: physicochemical; conditions: buffer
[4] = Half life in rat at 10 umol/kg, iv administered in PEG400; type: ADME, organism-based; conditions: in vivo
[5] = Volume of distribution beta in rat at 10 umol/kg, iv administered in PEG400; type: ADME, organism-based; conditions: in vivo, read-out: Vbeta
[6] = Cmax in rat at 10 umol/kg, po administered in PEG400; type: ADME, organism-based; parameters: dose 10 umol/kg, route oral; conditions: in vivo
[7] = Oral bioavailability in rat at 10 umol/kg administered in PEG400; type: ADME, organism-based; conditions: in vivo
[8] = Half life in dog at 5 umol/kg, iv administered in PEG400; type: ADME, organism-based, Canis lupus familiaris; conditions: in vivo
[9] = Volume of distribution beta in dog at 5 umol/kg, iv administered in PEG400; type: ADME, organism-based, Canis lupus familiaris; conditions: in vivo, read-out: Vbeta
[10] = Half life in monkey at 5 umol/kg, iv administered in PEG400; type: ADME, organism-based, Macaca mulatta; conditions: rhesus monkey, in vivo
[11] = Volume of distribution beta in monkey at 5 umol/kg, iv administered in PEG400; type: ADME, organism-based, Macaca mulatta; conditions: rhesus monkey, in vivo, read-out: Vbeta
[12] = Cmax in monkey at 10 umol/kg, po administered in PEG400; type: ADME, organism-based, Macaca mulatta; parameters: dose 10 umol/kg, route oral; conditions: rhesus monkey, in vivo
[13] = Oral bioavailability in monkey at 10 umol/kg administered in PEG400; type: ADME, organism-based, Macaca mulatta; conditions: rhesus monkey, in vivo
[14] = Permeability across human Caco-2 cells; type: ADME, cell-based
[15] = species on record: Rattus norvegicus; test: Decrease in carrageenan-induced thermal hyperalgesia in Sprague-Dawley rat; type: functional
[16] = system: Rattus norvegicus; test: Decrease in carrageenan-induced thermal hyperalgesia in Sprague-Dawley rat at 100 umol/kg; type: functional, organism-based
[17] = Ratio of drug level in brain to plasma in Sprague-Dawley rat; type: ADME; conditions: read-out: BPR
[18] = Cmax in dog at 5 umol/kg, po administered in PEG400; conditions: in vivo
[19] = Oral bioavailability in dog at 5 umol/kg administered in PEG400; conditions: in vivo
[20] = Cmax in dog at 5 umol/kg, po administered in oleic acid/cremophor/PEG400 (80:10:10); conditions: in vivo
[21] = Oral bioavailability in dog at 5 umol/kg administered in oleic acid/cremophor/PEG400 (80:10:10); conditions: in vivo

Chain of Transient receptor potential cation channel subfamily V member 1 (Q8NER1 whole entry): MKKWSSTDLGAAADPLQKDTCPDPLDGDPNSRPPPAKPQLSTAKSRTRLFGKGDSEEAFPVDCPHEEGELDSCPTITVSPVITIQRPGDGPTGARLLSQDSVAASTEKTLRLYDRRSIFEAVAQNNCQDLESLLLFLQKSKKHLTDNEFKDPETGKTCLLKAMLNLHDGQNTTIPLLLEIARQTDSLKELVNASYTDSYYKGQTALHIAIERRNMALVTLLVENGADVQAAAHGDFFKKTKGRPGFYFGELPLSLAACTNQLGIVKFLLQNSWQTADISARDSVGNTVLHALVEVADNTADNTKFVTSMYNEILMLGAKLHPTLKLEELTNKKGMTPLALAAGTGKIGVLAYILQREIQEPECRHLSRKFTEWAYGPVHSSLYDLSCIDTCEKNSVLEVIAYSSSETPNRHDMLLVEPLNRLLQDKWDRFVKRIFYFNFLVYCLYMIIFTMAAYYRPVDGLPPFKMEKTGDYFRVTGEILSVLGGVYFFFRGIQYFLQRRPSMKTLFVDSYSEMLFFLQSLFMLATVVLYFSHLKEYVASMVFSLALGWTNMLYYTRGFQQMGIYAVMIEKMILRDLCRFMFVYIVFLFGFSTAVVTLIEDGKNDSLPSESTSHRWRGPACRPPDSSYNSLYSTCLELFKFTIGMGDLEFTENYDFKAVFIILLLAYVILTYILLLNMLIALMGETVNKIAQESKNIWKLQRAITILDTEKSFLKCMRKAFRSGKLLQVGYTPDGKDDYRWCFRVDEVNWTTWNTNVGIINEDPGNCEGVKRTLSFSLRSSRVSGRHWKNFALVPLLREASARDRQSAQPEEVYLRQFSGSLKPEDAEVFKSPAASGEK

| IC50 [1] [nM] | SMILES | also measured |
| --- | --- | --- |
| 11 | Cc1ccc2c(c1)CCC2NC(=O)Nc1cccc2[nH]ncc12 (stereo unspecified) | – |
| 40 | COc1ccc2c(c1)CCC2NC(=O)Nc1cccc2[nH]ncc12 (stereo unspecified) | – |
| 7 | O=C(Nc1cccc2[nH]ncc12)NC1CCc2c1cccc2N1CCC(C(F)(F)F)CC1 (stereo unspecified) | – |
| 7 | CN1CCC(NC(=O)Nc2cccc3[nH]ncc23)c2ccc(C(F)(F)F)cc21 (stereo unspecified) | – |
| 9 | O=C(Nc1cccc2[nH]ncc12)NC1CCc2cc(Br)ccc21 (stereo unspecified) | – |
| 151 | O=C(Nc1cccc2[nH]ncc12)NC1CCc2ccccc21 (stereo unspecified) | – |
| 11 | O=C(Nc1cccc2[nH]ncc12)NC1CCOc2cc(C(F)(F)F)ccc21 (stereo unspecified) | – |
| 21 | O=C(Nc1cccc2[nH]ncc12)NC1CCc2c1cccc2N1CCCC1 (stereo unspecified) | – |
| 10 | O=C(Nc1cccc2[nH]ncc12)NC1CCc2cc(Cl)ccc21 (stereo unspecified) | – |
| 14 | O=C(Nc1cccc2[nH]ncc12)NC1CCc2cc(N3CCCCC3)ccc21 (stereo unspecified) | – |
| 19 | CC(C)(C#N)c1cccc2c1CCC2NC(=O)Nc1cccc2[nH]ncc12 (stereo unspecified) | – |
| – | CC(C)(C)c1ccc2c(c1)CC[C@H]2NC(=O)Nc1cccc2[nH]ncc12 [ABT-102] | Solubility [2]: 102 ng/mL (≈ 0.293 µM); Solubility [3]: 57.3 ng/mL (≈ 0.164 µM); half-life [4]: 102 min; Vd [5]: 2.8 L/kg; Cmax [6]: 250 ng/mL; bioavailability [7]: 70%; half-life [8]: 108 min; Vd [9]: 1.6 L/kg; half-life [10]: 114 min; Vd [11]: 1.7 L/kg; Cmax [12]: 310 ng/mL; bioavailability [13]: 25%; Papp [14]: > 18 ×10⁻⁶ cm/s; ED50 [15]: 20 µmol/kg; Activity [16]: Active; Kp [17]: 0.32; Cmax [18]: 390 ng/mL; bioavailability [19]: 22%; Cmax [20]: 650 ng/mL; bioavailability [21]: 60% |
| 1350 | O=C(Nc1cccc2[nH]ncc12)NC1CCc2cccnc21 (stereo unspecified) | – |
| 127 | CC(C)(CO)c1ccc2c(c1)CC[C@H]2NC(=O)Nc1cccc2[nH]ncc12 | – |
| 10 | CC(C)(C)c1ccc2c(c1)CC(NC(=O)Nc1cccc3[nH]ncc13)C2 (stereo unspecified) | – |
| 5820 | O=C(Nc1cccc2[nH]ncc12)NC1CCc2ncccc21 (stereo unspecified) | – |

| IC50 [1] [nM] | SMILES | also measured |
| --- | --- | --- |
| 34 | CC(C)(C)c1ccc2c(c1)CC[C@H]2N/C(=N/C#N)Nc1cccc2[nH]ncc12 | – |
| 7200 | Cc1ccc2c(c1)C(NC(=O)Nc1cccc3[nH]ncc13)CC2 (stereo unspecified) | – |
| 97 | CC(C)(C)c1ccc2c(c1)CC[C@H]2NC(=S)Nc1cccc2[nH]ncc12 | – |
| 14 | CC(C)(C)c1cccc2c1CCC2NC(=O)Nc1cccc2[nH]ncc12 (stereo unspecified) | – |
| 5 | O=C(Nc1cccc2[nH]ncc12)NC1CCc2c(C3CC3)cccc21 (stereo unspecified) | – |
| 10 | O=C(Nc1cccc2[nH]ncc12)NC1CCc2c1cccc2N1CCCCC1 (stereo unspecified) | – |
| 3 | O=C(Nc1cccc2[nH]ncc12)NC1CCc2cc(C(F)(F)F)ccc21 (stereo unspecified) | – |
| 35 | CC(C)(C)c1ccc2c(c1)CC(F)C2NC(=O)Nc1cccc2[nH]ncc12 (stereo unspecified) | – |
| 4 | O=C(Nc1cccc2[nH]ncc12)NC1CCc2cc(C3CC3)ccc21 (stereo unspecified) | – |
| 5 | O=C(Nc1cccc2[nH]ncc12)NC1CCc2c1ccc(F)c2N1CCOCC1 (stereo unspecified) | – |
| 52 | O=C(Nc1cccc2[nH]ncc12)NC1CCc2cc(F)ccc21 (stereo unspecified) | – |
| 65 | O=C(Nc1cccc2[nH]ncc12)NC1CCc2c1cccc2N1CCOCC1 (stereo unspecified) | – |
| 216 | CC(C)(C)c1ccc2c(c1)CC(F)(F)C2NC(=O)Nc1cccc2[nH]ncc12 (stereo unspecified) | – |
| 46 | Cc1cccc2c1CCC2NC(=O)Nc1cccc2[nH]ncc12 (stereo unspecified) | – |
| 595 | Cc1cccc2c1C(NC(=O)Nc1cccc3[nH]ncc13)CC2 (stereo unspecified) | – |
| 10 | O=C(Nc1cccc2[nH]ncc12)NC1CCc2c1cccc2C(F)(F)F (stereo unspecified) | – |
